Experimental data from ChEMBL document CHEMBL5441142, “Probing the Merck KGaA Open Global health library for novel starting points for anti-schistosomal drug discovery” (2024).
Activity calls are given as the source filed them. No rule for the calls is given here.

test system: Schistosoma mansoni; experiment: In vitro activity screen on S. mansoni schistosomula at 10 uM. Compound-induced effects were assessed by quantifying larva motility and phenotype using Roboworm.; format: functional, organism-based; design: test concentration 10 uM, temperature 37 degree C, time incubation 72 h; conditions: Puerto Rican

Row | Compound | In vitro activity
1 | COc1ccccc1CCN1CCC2(CC1)OC(=O)C(C)=C2C(=O)N1CCc2ccc(C(F)(F)F)cc2C1 | inactive
2 | CC1=C(C(=O)N2CCc3ncc(C(F)(F)F)cc3C2)C2(CCN(C3CCCC3)CC2)OC1=O | inactive
3 | Cc1cc(OC(C)(C)C)c(S(C)(=O)=O)cc1C(=O)N=C(N)N | inactive
4 | CC1=C(C(=O)N2CCc3ccc(C(F)(F)F)cc3C2)C2(CCN(C(C)C)CC2)OC1=O | inactive
5 | CCCCC[C@H](O)/C=C/[C@H]1CCC(=O)N1CCc1ccc(C(=O)O)cc1 | inactive
6 | COCc1cc(-c2nc(-c3ccc(CN(C)CC(=O)O)c(F)c3)no2)ccc1-c1ccccc1F | inactive
7 | Cc1cc2c(cc1C(=O)N=C(N)N)S(=O)(=O)CCC2C (configuration not stated) | inactive
8 | CCCN1CCC2(CC1)OC(=O)C(C)=C2C(=O)N1CCc2ccc(C(F)(F)F)cc2C1 | inactive
9 | O=C(Nc1ccc(CNc2ncnc3ccccc23)cc1)c1ccc(Cl)c(F)c1 | inactive
10 | CC1SC(=O)NN=C1c1ccc2c(c1)CCCN2 (configuration not stated) | inactive
11 | CC1=C(C(=O)N2Cc3cc(C(F)(F)F)ccc3C3(CC3)C2)C2(CCN(C3CCOCC3)CC2)OC1=O | inactive
12 | CC1=C(C(=O)N2CCc3ccc(C(F)(F)F)cc3C2)C2(CCN(C)CC2)OC1=O | inactive
13 | CCOC(=O)Nc1ccc(C(=O)N2CCCC(c3ccc(OC)c(OCC)c3)=N2)cc1 | inactive
14 | CCOC(=O)CC1=NN(c2ccc(C(=O)O)cc2)C(=O)/C1=C\Nc1ccccc1CC | inactive
15 | COc1cc(C(=O)Nc2cn(Cc3ccc(Cl)c(Cl)c3)nn2)ccc1-n1cnc(C)c1 | inactive
16 | COCc1cc(-c2nc(-c3ccc(CN(C)CC(=O)O)c(F)c3)no2)ccc1-c1ccccc1C | inactive
17 | Cn1c2ccccc2c2c(NCc3ccc4c(c3)OCO4)nc(-c3ccc(C(=O)O)cc3)nc21 | inactive
18 | CC(c1ccc2c(c1)CCC2)N1CCN(c2ccccc2)CC1 (configuration not stated) | inactive
19 | COc1cc(OC)c(CCNC(=O)c2cn3cc(-c4cc(OCC(=O)O)ccc4OC)nc3s2)c(OC)c1 | inactive
20 | Cc1cc(Oc2ccccc2)c(S(C)(=O)=O)cc1C(=O)N=C(N)N | inactive
21 | Cc1c(O)nc(N)nc1-c1cc2ccccc2o1 | inactive
22 | CC1=C(C(=O)N2CCN(c3cccc(C(F)(F)F)c3)CC2)C2(CCN(CCc3ccc(F)cc3)CC2)OC1=O | inactive

Row | Compound | In vitro activity
23 | COc1ccc(C(=O)N2CCCc3cc(C4=NNC(=O)SC4C)ccc32)cc1OC (configuration not stated) | inactive
24 | CC1=C(C(=O)N2CCc3ccc(C(F)(F)F)cc3C2)C2(CCN(CC3CCOC3)CC2)OC1=O (configuration not stated) | inactive
25 | COc1cc([S+]([O-])C(C)C)ccc1-c1nc2ccncc2[nH]1 (configuration not stated) | inactive
26 | Cc1cc(-c2cccs2)c(S(C)(=O)=O)cc1C(=O)N=C(N)N | inactive
27 | O=C(CCN1CCCCC1)c1ccc2[nH]c(=O)sc2c1 | inactive
28 | CCOC(=O)c1ccc(C2=CSC3=Nc4ccccc4CCN23)cc1 | inactive
29 | CC(Sc1nc(-c2ccc(Cl)cc2)c(-c2ccc(Cl)cc2)o1)C(=O)NCC(=O)O (configuration not stated) | inactive
30 | O=c1nc(Nc2cccc(Oc3ccncc3)c2)[nH]c2ccccc12 | inactive
31 | CC1=C(C(=O)N2CCc3ccc(C(F)(F)F)cc3C2)C2(CCN(C(C)(C)C)CC2)OC1=O | inactive
32 | COc1ccc(CCNC(=O)c2cn3cc(-c4cc(OCCCO)ccc4OC)nc3s2)c(OCCCO)c1 | inactive
33 | O=C(O)c1ccc(-c2nc(NCc3cccnc3)c3c(n2)sc2ccccc23)cc1 | inactive
34 | COc1cc(C(=O)Nc2cn(Cc3ccc4ccccc4c3)nn2)ccc1-n1cnc(C)c1 | inactive
35 | CC1(C)C=C(n2ccccc2=O)c2cc(C#N)ccc2O1 | inactive
36 | COc1cc(OC)c(CCNC(=O)c2cn3cc(-c4cc(OCC(O)CO)ccc4OC)nc3s2)c(OC)c1 (configuration not stated) | inactive
37 | O=C(O)CN1C(=O)[C@@]2(NC(=O)N(Cc3cc(Cl)ccc3F)C2=O)c2cc(Cl)ccc21 | inactive
38 | COc1ccc(OC)c(Nc2nc3ccccc3nc2NS(=O)(=O)Cc2cccnc2)c1 | inactive
39 | O=C(O)c1ccc(-c2nc(NCc3ccc4c(c3)OCO4)c3c4c(sc3n2)CCCC4)cc1 | inactive
40 | CCNC1=N[C@@H]2[C@@H](O)[C@H](O)[C@@H](Cn3cc(COc4cccc(Br)c4)nn3)O[C@@H]2S1 | inactive
41 | O=C(Nc1ccc(Oc2ccncc2)cc1)Nc1cc(C(F)(F)F)ccc1-n1cncn1 | inactive
42 | COc1ccc(OC)c(-c2cn3cc(C(=O)NCCc4cccc(OC)c4OC)ccc3n2)c1 | inactive
43 | CCCc1nn(C)c2c(=O)[nH]c(-c3cc(S(=O)(=O)Oc4ccc(=O)[nH]n4)ccc3OCC)nc12 | inactive
44 | Cc1cc2c(NCc3ccc4c(c3)OCO4)nc(-c3ccc(C(=O)O)cc3)nc2s1 | inactive

Row | Compound | In vitro activity
45 | COc1ccc(OCC(=O)O)cc1-c1cn2cc(C(=O)NCCc3c(OC)cc(Cl)cc3OC)sc2n1 | inactive
46 | CC1=C(C(=O)N2CCc3ccc(C(F)(F)F)cc3C2)C2(CCN(C3CCCC3)CC2)OC1=O | inactive
47 | Cc1sc2nc(N3CCC(C(=O)O)CC3)nc(NCc3ccc4c(c3)OCO4)c2c1Cl | inactive
48 | Oc1ccc2[nH]cc(CCCCN3CC=C(c4ccccc4)CC3)c2c1 | inactive
49 | CCOc1cc(CCC(=O)NC[C@H]2S[C@@H](c3ccc(C#Cc4ccccc4)cc3)N(c3cccc(C(N)=O)c3)C2=O)ccc1OC | inactive
50 | Cc1cc(C(C)C)c(S(C)(=O)=O)cc1C(=O)N=C(N)N | inactive
51 | COCc1cc(-c2nc(-c3cc(F)cc(CN(C)CC(=O)O)c3)no2)ccc1-c1ccccc1F | inactive
52 | Cc1cc(C)c(S(C)(=O)=O)cc1C(=O)N=C(N)N | inactive
53 | COc1ccc(CNc2nc(-c3ccc(C(=O)O)cc3)nc3sc4c(c23)CCCC4)cc1Cl | inactive
54 | COC(=O)c1cc(C(=O)N=C(N)N)c(C)cc1C | inactive
55 | CCOc1cc(-c2nc(-c3ccc(CN(C)CC(=O)O)c(F)c3)no2)ccc1-c1ccccc1C | inactive
56 | CC1=C(C(=O)N2CCc3ncc(C(F)(F)F)cc3C2)C2(CCN(C3CCc4ccccc43)CC2)OC1=O (configuration not stated) | inactive
57 | COCc1cc(-c2nc(-c3ccc(C(=O)O)c(F)c3)no2)ccc1-c1cc(F)ccc1OC | inactive
58 | Cc1cc(-c2ccccc2)c(S(C)(=O)=O)cc1C(=O)N=C(N)N | inactive
59 | CC1=C(C(=O)N2CCc3ncc(C(F)(F)F)cc3C2)C2(CCN([C@H]3CC[C@@H](O)CC3)CC2)OC1=O | inactive
60 | CCOc1cc(-c2nc(-c3ccc(CN(C)CC(=O)O)cc3)no2)ccc1-c1ccccc1C | inactive
61 | CCN1CCC2(CC1C)OC(=O)C(C)=C2C(=O)N1CCc2ccc(C(F)(F)F)cc2C1 (configuration not stated) | inactive
62 | COc1nc(/C=C/c2nc3n(n2)CCC[C@@H]3c2ccccc2C(F)(F)F)ccc1-n1cnc(C)c1 | inactive
63 | CCCc1nn(C)c2c(NCc3ccc(OC)c(Cl)c3)nc(CCCCC(=O)NS(C)(=O)=O)nc12 | inactive
64 | CN(C)c1nc2c(s1)CCc1[nH]c(=O)c(C#N)cc1-2 | inactive
65 | COc1ccc(N2C(=O)c3ccccc3NC23CN(Cc2cccc(C)c2)C3)cc1 | inactive
66 | CC/N=C(\c1ccc(OC)c(OC)c1)N1CCCc2cc(C3=NNC(=O)SC3C)ccc21 (configuration not stated) | inactive

Row | Compound | In vitro activity
67 | CCCc1nn(C)c2c(=O)[nH]c(-c3cc(C(=O)N=C(N)N)ccc3OCC)nc12 | inactive
68 | CNC(=O)c1cc(Oc2ccc(NC(=O)Nc3cc(C(F)(F)F)ccc3-n3ccnc3)cc2)ccn1 | inactive
69 | Cc1cc(C2CCC2)c(S(C)(=O)=O)cc1C(=O)N=C(N)N | inactive
70 | COc1nc(/C=C/c2nc3n(n2)CCCC3c2ccccc2C(F)(F)F)ccc1-n1cnc(C)c1 (configuration not stated) | inactive
71 | CN(CCCCc1ccc(F)cc1)CCC(=O)c1ccc2[nH]c(=O)oc2c1 | inactive
72 | CS(=O)(=O)c1cccc(-c2ccc(Cn3cc(C(=O)O)c(=O)c4cccc(F)c43)cn2)c1 | inactive
73 | CCCCc1nc2ccn(CC(=O)N(C)C)c(=O)c2n1Cc1ccc(-c2ccccc2-c2nnn[nH]2)cc1 | inactive
74 | COCc1cc(-c2nc(-c3ccc(CN(C)CCC(=O)O)c(F)c3)no2)ccc1-c1ccccc1C | inactive
75 | CC1=C(C(=O)N2Cc3cc(C(F)(F)F)ccc3C(C)(C)C2)C2(CCN(C3CCOCC3)CC2)OC1=O | inactive
76 | O=C(c1cc(-c2ccccn2)nc2ccc(Br)cc12)N1CCCC1 | inactive
77 | COc1ccc(C2=NN(C(=O)c3ccc(NC(=O)c4ccncc4)cc3)CCC2)cc1OC1CCCC1 | inactive
78 | COc1ccc(CNc2nc(-c3ccc(S(=O)(=O)O)cc3)nc3sc4c(c23)CCCC4)cc1Cl | inactive
79 | CCc1cc2c(NCc3ccc(OC)c(Cl)c3)nc(-c3ccc(C(=O)O)cc3)nc2s1 | inactive
80 | CCCCc1nc2ccn(Cc3ccccc3)c(=O)c2n1Cc1ccc(-c2ccccc2-c2nn[nH]n2)cc1 | inactive
81 | CC1=C(C(=O)N2CCc3ccc(C(F)(F)F)cc3C2)C2(CCN(C3CCC(O)CC3)CC2)OC1=O (configuration not stated) | inactive
82 | COc1ccc(OC)c(CCNC(=O)c2cn3cc(-c4cc(OC)ccc4OC)nc3s2)c1 | inactive
83 | COCc1cc(-c2nc(-c3cccc(CN(C)CC(=O)O)c3)no2)ccc1-c1cccc(F)c1C | inactive
84 | CCN(CCC(=O)O)Cc1cccc(-c2noc(-c3ccc(-c4ccccc4C)c(COC)c3)n2)c1 | inactive
85 | COc1cc(C(=O)Nc2cn(Cc3ccc(Cl)cc3)nn2)ccc1-n1cnc(C)c1 | inactive
86 | COc1ccc(CNc2nc(-c3ccc(CC(=O)O)cc3)nc3sc4c(c23)CCCC4)cc1Cl | inactive
87 | COCc1cc(-c2nc(-c3cc(F)cc(CN(C)CCC(=O)O)c3)no2)ccc1-c1ccccc1C | inactive
